Measurements as given in PubChem BioAssay AID1159558 (GlaxoSmithKline (GSK), 2015).
Activity calls are given as the source filed them.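 Rule for the calls: active = IC50 against T. cruzi CYP51 below a set limit; inactive = the rest.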

Target: Sterol 14-alpha demethylase (Trypanosoma cruzi (strain CL Brener)) (UniProt Q7Z1V1)
Experiment: T. cruzi sterol 14-alpha demethylase inhibition – biochemical, recombinant enzyme, mechanism study for T. cruzi antiparasitic project, dose response (AID 1159558);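 note: enzyme in bacterial membranes with Anopheles gambiae CYP reductase and cytochrome b5 partners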
Details: recombinant T. cruzi CYP51, BOMCC fluorescence

Sequence of Sterol 14-alpha demethylase (Trypanosoma cruzi (strain CL Brener)) (Q7Z1V1 whole entry, looked up): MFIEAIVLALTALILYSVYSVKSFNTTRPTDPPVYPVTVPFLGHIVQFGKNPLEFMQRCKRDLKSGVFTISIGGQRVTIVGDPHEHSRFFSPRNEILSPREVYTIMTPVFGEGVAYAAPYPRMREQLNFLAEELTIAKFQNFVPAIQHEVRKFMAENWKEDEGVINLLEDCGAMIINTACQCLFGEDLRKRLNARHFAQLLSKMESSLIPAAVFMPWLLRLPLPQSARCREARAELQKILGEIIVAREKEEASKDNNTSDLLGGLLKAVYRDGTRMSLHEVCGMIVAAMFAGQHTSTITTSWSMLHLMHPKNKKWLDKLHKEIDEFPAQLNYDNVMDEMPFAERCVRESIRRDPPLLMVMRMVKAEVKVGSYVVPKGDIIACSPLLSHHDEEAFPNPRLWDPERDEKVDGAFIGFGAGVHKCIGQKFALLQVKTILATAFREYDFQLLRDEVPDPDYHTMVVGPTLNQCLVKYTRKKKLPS

Compound	IC50
CC(C)c1cc(C(=O)N2CCCC(c3cc4ncccc4[nH]3)C2)on1 (centres undefined)	50 µM
COc1ccc(C2CC(c3ccccc3Cl)=NN2C(=O)CNC(=O)C2CCC2)cc1 (centres undefined)	50 µM
O=[N+]([O-])c1ccc(-c2nnn(-c3ccc(Cl)cc3)n2)o1	> 100 µM (inactive)
CCOc1cc(NCCCN2CCN(C)CC2)c2ncccc2c1	> 100 µM (inactive)
Cc1sc(C)c(C(F)(F)F)c1CNCCCNc1cc(=O)c2ccccc2[nH]1	20 µM
O=C(C1CCCCC1)N1CCN(c2nnc(-c3ccccc3)c3ccccc23)CC1	> 100 µM (inactive)
CC(C)(C)CC(=O)NCCc1csc(-c2ccc(F)cc2)n1	20 µM
CCNc1cc(-c2ccccn2)nc(Nc2ccc(OC)cc2)n1	40 µM
COc1ccc(Nc2nc(NC3CCC(O)CC3)ncc2Br)c(C(N)=O)c1 (centres undefined)	13 µM
COc1ccc2c(Cl)c(C(=O)N3CCC3)sc2c1Cl	> 100 µM (inactive)
COc1ccc(-c2cc(C)no2)cc1S(=O)(=O)Nc1ccc(F)c(Cl)c1	> 100 µM (inactive)
Cc1ccc(Nc2nc(-c3ccccn3)cc(N3CCCC(O)C3)n2)cc1 (centres undefined)	25 µM
COc1cccc(CCNC(=O)C(c2cn[nH]c2)N2CCN(c3ccc(Cl)cc3)CC2)c1 (centres undefined)	0.063 µM
Cc1cc(N(C)C)nc2ccc(Cc3cnc(N)nc3N)cc12	> 100 µM (inactive)
COc1ccc(OC)c2c(=O)c(Cc3ccccc3)c(C)[nH]c12	> 100 µM (inactive)
Cc1cc(C)nc(N2CCC(N(Cc3cccnc3)C(=O)c3cccc(C#N)c3)CC2)n1	0.13 µM
O=C(COc1ncnc2cc([N+](=O)[O-])ccc12)NC(=O)NC1CCCCC1	> 100 µM (inactive)
NC(=O)c1ncccc1Nc1nc(NC2CCC(O)CC2)ncc1Br (centres undefined)	> 100 µM (inactive)
O=C(O)[C@H]1C[C@@H]1c1ccc(-c2ccc(CN(CCc3ccccn3)C(=O)C3CCC3)cc2)cc1	20 µM
Cc1ccc(S(=O)(=O)Cn2nnnc2C(c2cccnc2)N2CCN(c3ccccc3)CC2)cc1 (centres undefined)	0.2 µM
CCC(c1ccc(F)cc1)n1cncc1-c1cnn(C)c1 (centres undefined)	0.079 µM
CCOc1ccc2nc(NC(=O)c3ccc([N+](=O)[O-])s3)sc2c1	> 100 µM (inactive)
COc1ccc(S(=O)(=O)Nc2ccc(CN3CCN(C(=O)c4cccc(C#N)c4)CC3)cc2)cc1	> 100 µM (inactive)
COc1ccc(C2=NCC(CSc3nnc(-c4ccc5c(c4)OCO5)o3)S2)cc1 (centres undefined)	10 µM
Cc1cc(Nc2cc(C3CC3)[nH]n2)nc(N2CCCC2)n1	> 100 µM (inactive)
O=C(Cn1cnc2c(-c3ccccc3)csc2c1=O)N1CCCCC1	40 µM

Compound	IC50
CC(C)n1c(-c2nonc2N)nc2cccc(OCCN3CCCC3)c21	40 µM
Cn1c(CC(=O)NNC(=O)c2ccc3ccccc3n2)nc2ccccc21	32 µM
O=C(CN1CCN(c2ccccn2)CC1)Nc1cc(S(=O)(=O)N2CCCCCC2)ccc1Cl	3.2 µM
CCCc1cc(C(=O)Nc2ncc(-c3cccc(Br)c3)n2C)n[nH]1	25 µM
CN1CCC(N(C)c2nccc(N3CCN(C(=O)c4cccc(-c5cccnc5)c4)CC3)n2)CC1	1.6 µM
O=[N+]([O-])c1ccc(-c2nnn(-c3cccnc3)n2)o1	4 µM
O=C1NCc2cccc(Nc3nc(NC4CCC(O)CC4)ncc3Br)c21 (centres undefined)	> 100 µM (inactive)
COc1ccccc1-c1c(C)[nH]c2nc(N)nc(C)c12	> 100 µM (inactive)
O=C(NCc1nnc2n1CCCCC2)c1csc(-c2ccccc2)n1	> 100 µM (inactive)
Cc1ccc2nc(N(Cc3cccnc3)C(=O)CCc3ccccc3)sc2c1	0.063 µM
CC(C)CC(=O)NC(c1cccs1)c1ccc2cccnc2c1O (centres undefined)	50 µM
NCc1ccc2c(Cl)cc(Cl)c(O)c2n1	40 µM
COCCn1c(-c2ccccc2)cnc1NCc1ccccc1OC	7.9 µM
CC(=O)NCCNc1cc(-c2ccnc(Nc3cccc(Cl)c3)n2)ccn1	5 µM
Cc1cccc(Nc2nc(-c3ccccn3)cs2)n1	20 µM
CN(Cc1ccc(C(N)=O)cc1)C(c1ccc(F)cc1)c1cccnc1 (centres undefined)	0.1 µM
O=C(Cc1ccccc1)Nc1[nH]nc2sc(C(=O)NC3CCCC3)cc12	32 µM
CC(Cn1ccnc1)NC(=O)C=Cc1ccc(Cl)cc1 (centres undefined)	0.16 µM
CN1CCCN(C(=O)c2ccc(N3CCCC3)cc2Cl)CC1	> 100 µM (inactive)
COc1ccc2ncc(=O)n(CCN3CCOC(CNCc4ccc(C(F)(F)F)cc4F)C3)c2n1 (centres undefined)	10 µM
CCC(=O)Nc1ccccc1C(=O)Nc1ccccn1	> 100 µM (inactive)
Cc1ccnc(NS(=O)(=O)c2ccc(NC(=O)c3ccc([N+](=O)[O-])s3)cc2)n1	63 µM
CC(C)(C)c1cc(NC2CC2)nc(-c2ccccn2)n1	> 100 µM (inactive)
CCC(=O)N1N=C(c2ccc3c(c2)CCCC3)Sc2c1ncn2C(=O)CC	> 100 µM (inactive)
O=C(Nc1ccccc1C(=O)Nc1ccccn1)c1ccco1	> 100 µM (inactive)
CC(C)C[C@H](NC(=O)c1ccc(-c2ccccc2)o1)C(=O)NC1(C#N)CC1	> 100 µM (inactive)

Compound	IC50
COc1ccc2ncc(Cl)c(CCN3CC[C@@H](NCc4cc5c(cn4)OCS5)[C@H](O)C3)c2n1	1 µM
CC(C(=O)Nc1ccccc1F)N(C)CC(=O)Nc1cccc2ccccc12 (centres undefined)	16 µM
COc1ccc2nc(N(Cc3cccnc3)C(=O)C3CCC3)sc2c1	0.063 µM
COc1ccc(C2CC(c3ccccc3Cl)=NN2C(=O)CNC(=O)C2CCCC2)cc1 (centres undefined)	63 µM
Cc1nn2c(NCCCO)c3c(nc2c1-c1cccs1)CCC3	25 µM
O=C(Nc1ccccc1)Nc1nc(-c2ccccn2)cs1	32 µM
Nc1nc(-c2ccccn2)nc(-n2nc(-c3cccc(C(F)(F)F)c3)cc2N)n1	> 100 µM (inactive)
COc1cccc(Nc2cc(C)nc(-c3ccccn3)n2)c1	> 100 µM (inactive)
CS(=O)(=O)NC1CCC(Nc2ncc(Br)c(Nc3ccccc3C(N)=O)n2)CC1 (centres undefined)	> 100 µM (inactive)
Cc1ccc(S(C)(=O)=O)cc1Nc1nccc(-c2sc(N)nc2-c2ccccc2)n1	> 100 µM (inactive)
Clc1ccc(CN2CCN(C3=NCCN3)CC2)cc1Cl	> 100 µM (inactive)
NC(=O)c1ccsc1NC(=O)c1ccc([N+](=O)[O-])s1	> 100 µM (inactive)
O=C(Nc1cccc(Cl)c1)Nc1ccc([N+](=O)[O-])cc1Cl	5 µM
O=C(Nc1nc(-c2ccc(S(=O)(=O)N3CCOCC3)cc2)cs1)c1ccc([N+](=O)[O-])cc1	> 100 µM (inactive)
CN(C)CCN(C)Cc1ccc(F)cc1NS(=O)(=O)c1ccc(Cl)c(Cl)c1	> 130 µM (inactive)
CN(C)CCOc1ccc(N2CCN(S(=O)(=O)c3ccc(Cl)cc3)CC2)cc1	25 µM
N#Cc1cnc(Nc2cccc(CCN3CCOCC3)c2)nc1Nc1ccccc1C(N)=O	10 µM
Cc1cc(NC(=O)C2CC2)ccc1OC1CCN(Cc2ccco2)CC1	63 µM
Cc1c(C#N)c([N+](=O)[O-])nn1Cc1cccc(Cl)c1Cl	> 100 µM (inactive)
COc1cnc2ccc(=O)n(CCN3CCC(NC/C=C/c4cc(F)ccc4F)CC3)c2c1	16 µM
O=C(NC(CO)c1ccc(F)cc1)c1ccc(-c2c[nH]c3ncccc23)s1 (centres undefined)	1.3 µM
O=C(Nc1nccs1)c1ccccc1Cn1cc([N+](=O)[O-])cn1	> 100 µM (inactive)
CC(C)(C)c1csc(NC(=O)c2ccc([N+](=O)[O-])s2)n1	7.9 µM
O=C(Nc1ccc(C(F)(F)F)cc1)NC1(C(=O)NCc2ccco2)CCCCC1	> 32 µM (inactive)
O=C(Nc1nc(-c2ccccn2)cs1)C1CCc2ccccc2C1 (centres undefined)	25 µM
Cc1[nH]n2c(=O)c3c(nc2c1-c1ccc(Br)cc1)CCCC3	> 100 µM (inactive)

Compound	IC50
CN(C)Cc1ccc(-c2ccc(S(=O)(=O)NCC3CCCO3)c(F)c2)cc1 (centres undefined)	40 µM
O=C(c1ccc(O)c(Cl)c1)N1CCN(c2cnccn2)CC1	> 100 µM (inactive)
NC(=O)c1ccccc1Nc1nc(NC2CCCCC2)nc2[nH]ccc12	> 100 µM (inactive)
Cc1nc2nc(C)c(Cc3ccc(C(C)C)cc3)c(=O)n2[nH]1	> 100 µM (inactive)
Cc1ccc(NC(C)C(=O)Nc2ccc(C#N)cc2)cc1S(=O)(=O)N1CCCCC1 (centres undefined)	16 µM
O=c1cc(NCCCNCc2c[nH]c3ccc(Br)cc23)[nH]c2ccccc12	> 100 µM (inactive)
COc1cc(OC)cc(C(NS(=O)(=O)c2ccc(Cl)c(C(F)(F)F)c2)c2nccn2C)c1 (centres undefined)	32 µM
N#Cc1c(Oc2cccc(Cl)c2)cccc1[N+](=O)[O-]	> 100 µM (inactive)
OC[C@@H](Nc1nccc(-c2c(-c3ccc(F)cc3)ncn2C2CCNCC2)n1)c1ccccc1	25 µM
Fc1ccc(OC2CC(NCc3cccc4cn[nH]c34)C2)cc1C(F)(F)F (centres undefined)	0.13 µM
O=C(Nc1ccc(S(=O)(=O)N2CCCC2)cc1)c1ccc([N+](=O)[O-])s1	> 100 µM (inactive)
Cc1ccc(CNC2CCN(C[C@@H]3Cn4c(=O)ccc5ccc(=O)n3c54)CC2)cc1F	> 100 µM (inactive)
CC(C)(C)C(=O)NCCc1csc(-c2ccc(F)cc2)n1	79 µM
CC(=O)Nc1cccc(Nc2ncnc3nc[nH]c23)c1	> 100 µM (inactive)
Cc1cc(Oc2cc(Cl)c(Cl)cc2Cl)n2ncnc2n1	> 100 µM (inactive)
Cn1nc([N+](=O)[O-])nc1N1CCCCC1	> 100 µM (inactive)
CCc1ccc2nc(NC(=O)c3cc(N4CCOCC4)ccn3)sc2c1	> 100 µM (inactive)
CCOc1ccc(OCC(=O)N2c3ccccc3CC2C(=O)NC)cc1 (centres undefined)	> 100 µM (inactive)
Cn1nccc1NC(=O)Cn1ccc(-c2ccncc2)n1	6.3 µM
O=C(CN(Cc1ccccn1)Cc1ccccn1)NC1Cc2ccccc2C1	79 µM
Cc1cc(NC(=O)CC2CCCCC2)n(-c2nc3c(c(=O)[nH]2)CCC3)n1	> 100 µM (inactive)
Cc1nn(-c2nc(N)nc(-c3ccccn3)n2)c(C)c1Cc1ccccc1	63 µM
Cc1[nH]n2c(=O)c3c(nc2c1-c1ccc(Cl)cc1)CCCC3	> 100 µM (inactive)
Cc1cccc(N2CCCN(Cc3c[nH]c4ccccc34)CC2)n1	> 100 µM (inactive)
COc1ccc(C(C)N(C)c2ncc3c(N)nc(N)nc3n2)cc1F (centres undefined)	> 100 µM (inactive)
COc1ncc(-c2ccc3nccc(-c4ccncc4)c3c2)cc1NS(=O)(=O)C1CC1	7.9 µM
